Source: ChEMBL document CHEMBL5725973, “Pyrrolidine orexin receptor antagonists” (2018)

What was measured:
[1] = target: T1, Orexin/Hypocretin receptor type 1 (Homo sapiens, UniProt O43613); test: (§1) FLIPR Ca2+ Flux Assay: All reagents were from GIBCO-Invitrogen Corp. The seeded plates are incubated overnight at 37° C. and 5% CO2. Ala-6,12 human orexin-A as the agonist is prepared as a 1 mM stock solution in 1% bovine serum albumin (BSA) and diluted in assay buffer (HBSS containing 20 mM HEPES, 0.1% BSA and 2.5 mM probenecid, pH7.4) for use in the assay at a final concentration of 70pM. Test compounds are prepared as 10 mM stock solution in DMSO, then diluted in 384-well plates, first in DMSO, then assay buffer. On the day of the assay, cells are washed 3 times with 100 μl assay buffer and then incubated for 60 min (37° C., 5% CO2) in 60 μl assay buffer containing 1 μM Fluo-4AM ester, 0.02% pluronic acid, and 1% BSA. The dye loading solution is then aspirated and cells are washed 3 times with 100 μl assay buffer. 30 μl of that same buffer is left in each well. Within the Fluorescent Imaging Plate Reader (FLIPR, Molecular Devices), test compounds are added to the plate in a volume of 25 μl, incubated for 5 min and finally 25 μl of agonist is added. Fluorescence is measured for each well at 1 second intervals for 5 minutes and the height of each fluorescence peak is compared to the height of the fluorescence peak induced by 70 pM Ala-6,12 orexin-A with buffer in place of antagonist. For each antagonist, IC50 value (the concentration of compound needed to inhibit 50% of the agonist response) is determined. Alternatively, compound potency can be assessed by a radioligand binding assay (described in Bergman et. al. Bioorg. Med. Chem. Lett. 2008, 18, 1425-1430) in which the inhibition constant (Ki) is determined in membranes prepared from CHO cells expressing either the OX1 or OX2 receptor. The intrinsic orexin receptor antagonist activity of a compound which may be used in the present invention may be determined by these assays.
T1 sequence (O43613 whole entry): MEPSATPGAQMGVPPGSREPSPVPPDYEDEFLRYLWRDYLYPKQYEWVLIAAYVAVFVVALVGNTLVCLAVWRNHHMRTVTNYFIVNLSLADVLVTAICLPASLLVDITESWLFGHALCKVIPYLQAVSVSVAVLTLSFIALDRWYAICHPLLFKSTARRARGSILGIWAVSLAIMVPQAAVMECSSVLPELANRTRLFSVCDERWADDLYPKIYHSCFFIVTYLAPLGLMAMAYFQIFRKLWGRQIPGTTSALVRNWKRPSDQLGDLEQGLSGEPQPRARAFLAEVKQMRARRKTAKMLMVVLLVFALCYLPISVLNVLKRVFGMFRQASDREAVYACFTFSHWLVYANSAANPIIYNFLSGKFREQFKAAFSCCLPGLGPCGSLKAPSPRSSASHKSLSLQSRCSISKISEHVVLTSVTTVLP

[2] = target: T2, Orexin receptor type 2 (Homo sapiens, UniProt O43614); test: as §1
T2 sequence (O43614 whole entry): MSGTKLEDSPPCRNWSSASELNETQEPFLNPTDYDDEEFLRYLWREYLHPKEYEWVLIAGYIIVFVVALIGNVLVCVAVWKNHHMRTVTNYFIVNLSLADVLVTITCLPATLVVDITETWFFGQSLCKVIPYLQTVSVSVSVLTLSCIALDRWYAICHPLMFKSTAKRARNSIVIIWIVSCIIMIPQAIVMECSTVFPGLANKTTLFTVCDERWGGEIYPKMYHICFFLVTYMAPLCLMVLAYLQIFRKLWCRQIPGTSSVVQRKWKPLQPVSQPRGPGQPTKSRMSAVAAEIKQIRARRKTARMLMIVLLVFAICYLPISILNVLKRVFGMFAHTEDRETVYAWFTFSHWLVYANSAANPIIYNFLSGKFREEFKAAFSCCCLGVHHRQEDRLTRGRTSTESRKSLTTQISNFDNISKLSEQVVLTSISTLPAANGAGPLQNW

| SMILES | IC50 [1] [nM] | IC50 [2] [nM] |
| --- | --- | --- |
| C[C@@H]1C[C@@H](Nc2cc(Br)ccn2)CN1C(=O)c1ccccc1-n1nccn1 | 1150 | 11.2 |
| C[C@@H]1C[C@@H](Nc2cc(OCC(F)F)ccn2)CN1C(=O)c1ccccc1C1(C#N)CCC1 | 4040 | 58.3 |
